Assay results: PubChem BioAssay (NCI)
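A five-concentration, 48-hour dose response in 96-well plates underlies each endpoint, interpolated linearly between surrounding concentrations. TGI: concentration producing complete growth inhibition.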

Tests used:
Test in all cases: NCI tumour cell line growth inhibition, 48 h
786-0 renal = system: 786-0 renal
A549 NSCLC = system: A549 NSCLC
ACHN renal = system: ACHN renal
BT-549 breast = system: BT-549 breast
CAKI-1 renal = system: CAKI-1 renal
CCRF-CEM leukemia = system: CCRF-CEM leukemia
COLO 205 colon = system: COLO 205 colon
DU-145 prostate = system: DU-145 prostate
EKVX NSCLC = system: EKVX NSCLC
HCC-2998 colon = system: HCC-2998 colon
HCT-116 colon = system: HCT-116 colon
HCT-15 colon = system: HCT-15 colon
HL-60(TB) leukemia = system: HL-60(TB) leukemia
HOP-62 NSCLC = system: HOP-62 NSCLC
HOP-92 NSCLC = system: HOP-92 NSCLC
HS 578T breast = system: HS 578T breast
HT29 colon = system: HT29 colon
IGROV1 ovarian = system: IGROV1 ovarian
K-562 leukemia = system: K-562 leukemia
KM12 colon = system: KM12 colon
LOX IMVI melanoma = system: LOX IMVI melanoma
M14 melanoma = system: M14 melanoma
MALME-3M melanoma = system: MALME-3M melanoma
MCF7 breast = system: MCF7 breast
MDA-MB-231 breast = system: MDA-MB-231 breast
MDA-MB-435 = system: MDA-MB-435
MDA-N = system: MDA-N
MOLT-4 leukemia = system: MOLT-4 leukemia
NCI-H226 lung = system: NCI-H226 lung
NCI-H23 lung = system: NCI-H23 lung
NCI-H460 lung = system: NCI-H460 lung
NCI-H522 lung = system: NCI-H522 lung
NCI/ADR-RES ovarian = system: NCI/ADR-RES ovarian
OVCAR-3 ovarian = system: OVCAR-3 ovarian
OVCAR-4 ovarian = system: OVCAR-4 ovarian
OVCAR-5 ovarian = system: OVCAR-5 ovarian
OVCAR-8 ovarian = system: OVCAR-8 ovarian
PC-3 prostate = system: PC-3 prostate
RPMI-8226 leukemia = system: RPMI-8226 leukemia
RXF 393 renal = system: RXF 393 renal
SF-268 CNS = system: SF-268 CNS
SF-295 CNS = system: SF-295 CNS
SF-539 CNS = system: SF-539 CNS
SK-MEL-2 melanoma = system: SK-MEL-2 melanoma
SK-MEL-28 melanoma = system: SK-MEL-28 melanoma
SK-MEL-5 melanoma = system: SK-MEL-5 melanoma
SK-OV-3 ovarian = system: SK-OV-3 ovarian
SN12C renal = system: SN12C renal
SNB-19 CNS = system: SNB-19 CNS
SNB-75 CNS = system: SNB-75 CNS
SR leukemia = system: SR leukemia
SW-620 colon = system: SW-620 colon
T-47D breast = system: T-47D breast
TK-10 renal = system: TK-10 renal
U251 CNS = system: U251 CNS
UACC-257 melanoma = system: UACC-257 melanoma
UACC-62 melanoma = system: UACC-62 melanoma
UO-31 renal = system: UO-31 renal
A498 renal = system: A498 renal

Measured: TGI

Nc1c2ccccc2nc2ccc(C(=O)Nc3ccc(S(N)(=O)=O)cc3)cc12
not listed: A498 renal
> 100 µM: all other assays above

COc1ccc(/C=N/NC(=O)c2ccccc2Nc2ccccc2C(=O)N/N=C/c2ccc(OC)c(OC)c2)cc1OC
89.1 µM: MDA-MB-231 breast
not listed: LOX IMVI melanoma | NCI-H522 lung | SF-539 CNS
> 100 µM: all other assays above

COC(=O)[C@H]1ON2O[C@H](OC3CCCC[C@@H]3c3ccccc3)C[C@@H]3CC[C@H]1[C@@]32C (stereo partly specified)
98.5 µM: HL-60(TB) leukemia
not listed: OVCAR-3 ovarian | SF-539 CNS
> 100 µM: all other assays above

C=CC(C)(C)c1cc([C@@H]2COc3cc(O)ccc3C2=O)c(O)c(OC)c1OC
44.9 µM: UACC-257 melanoma
58.3 µM: EKVX NSCLC
52.6 µM: SK-MEL-28 melanoma
31.9 µM: 786-0 renal
43.2 µM: MALME-3M melanoma
72.2 µM: HS 578T breast
54.3 µM: OVCAR-8 ovarian
27.5 µM: SF-295 CNS | UACC-62 melanoma
24.5 µM: HCT-116 colon
34.3 µM: HCC-2998 colon
51 µM: SF-268 CNS
20.9 µM: NCI-H522 lung
21.5 µM: MDA-MB-435
28.3 µM: UO-31 renal
35.2 µM: T-47D breast
43 µM: NCI/ADR-RES ovarian
47.3 µM: HT29 colon
27.2 µM: NCI-H23 lung
21.6 µM: HOP-92 NSCLC
32.8 µM: HCT-15 colon
44.2 µM: HL-60(TB) leukemia
52 µM: A549 NSCLC
33.3 µM: SK-MEL-2 melanoma
33.7 µM: ACHN renal
27.8 µM: KM12 colon
> 100 µM: CCRF-CEM leukemia | K-562 leukemia | MOLT-4 leukemia | SR leukemia | SW-620 colon | TK-10 renal
50.4 µM: OVCAR-5 ovarian
26.8 µM: U251 CNS
36.7 µM: SK-OV-3 ovarian
31.2 µM: M14 melanoma
38.9 µM: NCI-H226 lung
23.3 µM: OVCAR-3 ovarian
44 µM: SF-539 CNS
45 µM: COLO 205 colon
19.7 µM: OVCAR-4 ovarian
31.3 µM: SN12C renal
25.6 µM: SNB-75 CNS
26 µM: MDA-N
30.3 µM: DU-145 prostate
41.7 µM: NCI-H460 lung
22.7 µM: SK-MEL-5 melanoma
30.6 µM: SNB-19 CNS
37.9 µM: LOX IMVI melanoma | MDA-MB-231 breast
25.1 µM: BT-549 breast
35.4 µM: A498 renal
34.8 µM: PC-3 prostate
3.58 µM: RXF 393 renal
31.8 µM: MCF7 breast
